Literature values as cited in patent publication US10973875B2, “Medical agents and uses thereof” (LOKON PHARMA AB, priority 2014, dated 2021).

Conditions: patients treated with gemcitabine

## Nc1ccn([C@@H]2O[C@H](CO)[C@@H](O)C2(F)F)c(=O)n1 [gemcitabine]
  levels of TGF, Tregs and MDSCs: significantly lower levels
